Legend:
[1] = system: Erwinia amylovora (fire blight); experiment: Fire blight field trial on apple trees, one spray at full bloom: disease incidence and severity; assay type: in vivo; conditions: for Disease incidence (# of trees): standard, concentration not given, one spray at full bloom
Method: Experimental design: Three cultivars, 8 treatments and four blocks. In each block there is one tree per cultivar per treatment (four trees per cultivar per treatment). Treatments are randomized within each cultivar in each block.
When the forecast predicts favorable conditions, treatments were applied within 24-48 hours. Note: Oxysilver compound was a mixture of oxysilver bisulphate and oxysilver nitrate, with oxysilver bisulphate as the dominant compound.
(§1) Three apple varieties (Gala, Fuji, and Golden) were treated with one spray of oxysilver at full-bloom. There were a total of eight treatments: 1. Untreated control, 2. Streptomycin standard, 3. Oxytetracycline standard, 4. Oxysilver compound 0.005% (w/v), 5. Oxysilver compound 0.05%, 6. Oxysilver compound 0.1%, 7. Oxysilver compound 0.5%, and 8. Oxysilver compound 1.0%. The trees were evaluated once a week for disease severity and phytotoxicity. Apples were harvested. Each treatment and variety combination was repeated four times. Disease incidence through blossom infections was monitored. Infections four weeks or so after bloom are not due to blossom infections and are not typically treated by growers.
(§2) Disease incidence was recorded as the number of trees showing infections per treatment. Disease severity was rated as follows: 0—No disease, 1—One—two infected shoots, 2—Two-four infected shoots, 3—Four or more infected shoots or one systemic canker, 4—Two or more systemic cankers. […] After harvest, apples from untreated trees and trees treated with 0.005% and 1% oxysilver compound were sent to an independent lab for testing of silver accumulation in the fruit. For comparison, oxysilver compound was sprayed directly on some apples.
(§3) Statistical analysis was done using SAS 9.3 Proc glimmix and Proc GLM.

[2] = system: apple varieties (Gala, Fuji, and Golden); experiment: Phytotoxicity of leaf and fruit on treated apple trees; assay type: in vivo; conditions: standard, concentration not given; for Phytotoxicity (leaf) (average): rating 0 (none) to 4 (50-100% of leaf area necrotic); for Phytotoxicity (fruit) (average): rating 0 (none) to 4 (severe deformation)
Method: as §1, §2, §3

| SMILES | Disease severity compared with untreated control ([1]; all oxysilver treatments and streptomycin standard, p=0.05, systemic cankers in untreated control) | Disease incidence (# of trees) [1] | Phytotoxicity (leaf) (average) [2] | Phytotoxicity (fruit) (average) [2] |
| --- | --- | --- | --- | --- |
| [H]/N=C(/N)N[C@H]1[C@H](O)[C@@H](O)[C@H](O[C@@H]2O[C@@H](C)[C@](O)(C=O)[C@H]2O[C@@H]2O[C@@H](CO)[C@H](O)[C@@H](O)[C@@H]2NC)[C@@H](N/C(N)=N\[H])[C@@H]1O [Streptomycin, streptomycin] | significantly higher in the untreated control | 1 ab # of trees | 0 c | 0 c |
| CN(C)[C@@H]1C(O)=C(C(N)=O)C(=O)[C@@]2(O)C(O)=C3C(=O)c4c(O)cccc4[C@@](C)(O)[C@H]3[C@H](O)[C@@H]12 [Oxytetracycline, oxytetracycline] | – | 1 ab # of trees | 0 c | 0 c |

— patent publication US20120219638A1, “Method and Compositions for Treating Plant Infections” (priority 2006, published 2012)
